Marks after values point to notes of the source that are not given here.
Tests used:
[1] = Optical absorption spectra (UV-Vis spectrophotometer); assay type: physicochemical; details: for Absorption log e / Absorption λmax: Table I; for Absorption Q band / Absorption Q band Ig ε / Absorption Soret band / Absorption Soret band Ig ε: Table II
Procedure: (§1) Quartz fluorometric cells (Starna, Inc, 1 cm optical path length) were used in optical experiments. Optical spectra were recorded on a Perkin-Elmer Lambda 35 UV-Vis spectrophotometer. Steady state fluorescence and phosphorescence measurements were performed on a SPEX Fluorolog-2 spectrofluorometer (Jobin-Yvon Horiba), equipped with an infra-red enhanced R2658P PMT (Hamamatsu). Emission spectra were obtained using solutions with absorption at the excitation maxima of approximately 0.05 OD. Quantum yields of emission of all the synthesized compounds were measured relative to the fluorescence of tetraphenylporphyrin (φfl=0:11 in deox. C6H6).

[2] = Steady state phosphorescence: emission maxima, quantum yields, lifetimes; assay type: physicochemical; details: for Phosphorescence φ: PhCN, deoxygenated, relative to fluorescence of H2TPP in deoxygenated benzene
Procedure: as §1

[3] = solution in PhCN, deoxygenated by Ar-bubbling
[4] = solution in PhCN, deoxygenated by Ar-bubbling, above 900 nm large experimental errors

Absorption log e ([1]; first band)	Absorption λmax ([1]; first band)	Absorption log e ([1]; second band)	Absorption λmax ([1]; second band)	Phosphorescence λmax ([2]; Table I)	τ0 ([2]; Table I)	φp ([2]; Table I)	Absorption Q band [1]	Absorption Q band Ig ε [1]	Absorption Soret band [1]	Absorption Soret band Ig ε [1]	Phosphorescence φ [2]	Phosphorescence τ0 [2, 3]	Phosphorescence λmax [2, 4]	SMILES
5.46	446 nm	5.00	635 nm	816 nm	210 μs	0.09								O=C(O)c1cc(C(=O)O)cc(C2=C3N=C(C(c4cc(C(=O)O)cc(C(=O)O)c4)=c4c5ccccc5c5[n]4[Pd][n]4c2c2ccccc2c4C(c2cc(C(=O)O)cc(C(=O)O)c2)=C2N=C(C=5c4cc(C(=O)O)cc(C(=O)O)c4)c4ccccc42)c2ccccc23)c1
5.23	433 nm	5.00	622 nm	791 nm	41 μs	0.30								O=C(O)c1cc(C(=O)O)cc(C2=C3N=C(C(c4cc(C(=O)O)cc(C(=O)O)c4)=c4c5ccccc5c5[n]4[Pt][n]4c2c2ccccc2c4C(c2cc(C(=O)O)cc(C(=O)O)c2)=C2N=C(C=5c4cc(C(=O)O)cc(C(=O)O)c4)c4ccccc42)c2ccccc23)c1
5.54	406 nm	4.50	512 nm		53 μs	0.24								O=C(O)c1cc(C(=O)O)cc(C2=C3C=CC(=N3)C(c3cc(C(=O)O)cc(C(=O)O)c3)=c3ccc4[n]3[Pt][n]3c2ccc3C(c2cc(C(=O)O)cc(C(=O)O)c2)=C2C=CC(=N2)C=4c2cc(C(=O)O)cc(C(=O)O)c2)c1 [Octacarboxyporphyrin Pt, Octacarboxyporphyrin]
5.14	441 nm	5.28	700 nm	923 nm	12 μs	0.06								O=C(O)c1cc(C(=O)O)cc(C2=C3N=C(C(c4cc(C(=O)O)cc(C(=O)O)c4)=c4c5cc6ccccc6cc5c5[n]4[Pt][n]4c2c2cc6ccccc6cc2c4C(c2cc(C(=O)O)cc(C(=O)O)c2)=C2N=C(C=5c4cc(C(=O)O)cc(C(=O)O)c4)c4cc5ccccc5cc42)c2cc4ccccc4cc23)c1 [Octacarboxytetra naphthoporphyrin Pt, Octacarboxytetra naphthoporphyrin]
							526 nm	4.57	422 nm	5.61	0.08	504 μs	696 nm	CCCCOC(=O)c1cc(C(=O)OCCCC)cc(C2=C3C=CC(=N3)C(c3cc(C(=O)OCCCC)cc(C(=O)OCCCC)c3)=c3ccc4[n]3[Pd][n]3c2ccc3C(c2cc(C(=O)OCCCC)cc(C(=O)OCCCC)c2)=C2C=CC(=N2)C=4c2cc(C(=O)OCCCC)cc(C(=O)OCCCC)c2)c1 [Pd-1-OBu]
							716 nm	5.29	458 nm	5.29	0.02	52 μs	961 [c] nm	CCCCOC(=O)c1cc(C(=O)OCCCC)cc(C2=C3N=C(C(c4cc(C(=O)OCCCC)cc(C(=O)OCCCC)c4)=c4c5cc6ccccc6cc5c5[n]4[Pd][n]4c2c2cc6ccccc6cc2c4C(c2cc(C(=O)OCCCC)cc(C(=O)OCCCC)c2)=C2N=C(C=5c4cc(C(=O)OCCCC)cc(C(=O)OCCCC)c4)c4cc5ccccc5cc42)c2cc4ccccc4cc23)c1 [Pd-3-OBu]

Source: patent publication US20110117020A1, “IMAGING DENDRIMER NANOPROBES AND USES THEREOF” (THE TRUSTEES OF THE UNIVERSITY OF PENNSYLVANIA, priority 2008, published 2011)
